{
  "source": "patent US9113629B2",
  "about": "“4-amino-6-(4-substituted-phenyl)-picolinates and 6-amino-2-(4-substituted-phenyl)-pyrimidine-4-carboxylates and their use as herbicides” (DOW AGROSCIENCES LLC, priority 2013, dated 2015)",
  "key": {"[1]": {"tested_on": "Key Broadleaf Weed and Crop Species", "test": "Post-emergent Test II herbicidal activity (Table 5)", "format": "in vivo", "details": "post-emergence, 336 h, post-emergent, 14 days after application; for pest or weed control at 70 g/ha: 70 g ai/ha; for pest or weed control at 140 g/ha: 140 g ai/ha", "summary_of_the_method": "(§1)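 Post-emergence foliar spray, 187 L/ha, track sprayer at 43 cm above canopy. Carrier: acetone/water/IPA/DMSO/Atplus 411F/Triton X-155. Plants at 1st–2nd true leaf; subirrigated afterwards; % injury scored visually at 14 d.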"}, "[2]": {"tested_on": "Key Grass and Sedge Weeds as well as Grass Crops", "test": "Post-emergent Test II herbicidal activity (Table 6)", "format": "in vivo", "details": "post-emergence, 336 h; for pest or weed control at 70 g/ha: application rate 70 g ai/ha; for pest or weed control at 140 g/ha: application rate 140 g ai/ha", "summary_of_the_method": "as §1"}, "[3]": {"details": "ABUTH: velvetleaf (Abutilon theophrasti), read-out: Visual Growth Reduction (%) 14 Days After Application ABUTH"}, "[4]": {"details": "AMARE: redroot pigweed (Amaranthus retroflexus), read-out: Visual Growth Reduction (%) 14 Days After Application AMARE"}, "[5]": {"details": "BRSNN: oilseed-rape, canola (Brassica napus), read-out: Visual Growth Reduction (%) 14 Days After Application BRSNN"}, "[6]": {"details": "CHEAL: lambsquarters (Chenopodium album), read-out: Visual Growth Reduction (%) 14 Days After Application CHEAL"}, "[7]": {"details": "EPHHL: wild poinsettia (Euphorbia heterophylla), read-out: Visual Growth Reduction (%) 14 Days After Application EPHHL"}, "[8]": {"details": "HELAN: sunflower (Helianthus annuus), read-out: Visual Growth Reduction (%) 14 Days After Application HELAN"}, "[9]": {"details": "VIOTR: wild pansy (Viola tricolor), read-out: Visual Growth Reduction (%) 14 Days After Application VIOTR"}, "[10]": {"details": "Triticum aestivum, TRZSS (wheat), read-out: Visual Growth Reduction (%) 14 Days After Application, TRZSS"}, "[11]": {"details": "CYPES: yellow nutsedge (Cyperus esculentus), read-out: Visual Growth Reduction (%) 14 Days After Application, CYPES"}, "[12]": {"details": "DIGSA: crabgrass (Digitaria sanguinalis), read-out: Visual Growth Reduction (%) 14 Days After Application, DIGSA"}, "[13]": {"details": "ECHCG: barnyardgrass (Echinochloa crus-galli), read-out: Visual Growth Reduction (%) 14 Days After Application, ECHCG"}, "[14]": {"details": "ORYSA: rice (Oryza sativa), read-out: Visual Growth Reduction (%) 14 Days After Application, ORYSA"}, "[15]": {"details": "SETFA: giant foxtail (Setaria faberi), read-out: Visual Growth Reduction (%) 14 Days After Application, SETFA"}, "[16]": {"details": "SORVU: grain sorghum (Sorghum vulgare), read-out: Visual Growth Reduction (%) 14 Days After Application, SORVU"}, "[17]": {"details": "ZEAMX: maize, corn (Zea mays), read-out: Visual Growth Reduction (%) 14 Days After Application, ZEAMX"}},
  "note": "Read-outs that look alike come from different tables or passages of the source.",
  "data": [
    {"smiles": "Nc1cc(-c2ccc(Br)c(F)c2)nc(C(=O)O)c1Cl", "note": "[Compound 110, 4-Amino-6-(4-bromo-3-fluorophenyl)-3-chloropicolinic acid]", "values": [
      {"measurement": "pest or weed control at 70 g/ha", "setting": "[1]; [3]", "result": "95 to 100", "unit": "%"},
      {"measurement": "pest or weed control at 140 g/ha", "setting": "[1]; [3]", "result": "95 to 100", "unit": "%"},
      {"measurement": "pest or weed control at 70 g/ha", "setting": "[1]; [4]", "result": "95 to 100", "unit": "%"},
      {"measurement": "pest or weed control at 140 g/ha", "setting": "[1]; [4]", "result": "95 to 100", "unit": "%"},
      {"measurement": "pest or weed control at 70 g/ha", "setting": "[1]; [5]", "result": "95 to 100", "unit": "%"},
      {"measurement": "pest or weed control at 140 g/ha", "setting": "[1]; [5]", "result": "95 to 100", "unit": "%"},
      {"measurement": "pest or weed control at 70 g/ha", "setting": "[1]; [6]", "result": "95 to 100", "unit": "%"},
      {"measurement": "pest or weed control at 140 g/ha", "setting": "[1]; [6]", "result": "95 to 100", "unit": "%"},
      {"measurement": "pest or weed control at 70 g/ha", "setting": "[1]; [7]", "result": "95 to 100", "unit": "%"},
      {"measurement": "pest or weed control at 140 g/ha", "setting": "[1]; [7]", "result": "95 to 100", "unit": "%"},
      {"measurement": "pest or weed control at 70 g/ha", "setting": "[1]; [8]", "result": "95 to 100", "unit": "%"},
      {"measurement": "pest or weed control at 140 g/ha", "setting": "[1]; [8]", "result": "95 to 100", "unit": "%"},
      {"measurement": "pest or weed control at 70 g/ha", "setting": "[1]; [9]", "result": "45 to 59", "unit": "%"},
      {"measurement": "pest or weed control at 140 g/ha", "setting": "[1]; [9]", "result": "45 to 59", "unit": "%"},
      {"measurement": "pest or weed control at 70 g/ha", "setting": "[2]; [10]", "result": "45 to 59", "unit": "%"},
      {"measurement": "pest or weed control at 140 g/ha", "setting": "[2]; [10]", "result": "45 to 59", "unit": "%"},
      {"measurement": "pest or weed control at 70 g/ha", "setting": "[2]; [11]", "result": "45 to 59", "unit": "%"},
      {"measurement": "pest or weed control at 140 g/ha", "setting": "[2]; [11]", "result": "45 to 59", "unit": "%"},
      {"measurement": "pest or weed control at 70 g/ha", "setting": "[2]; [12]", "result": "75 to 84", "unit": "%"},
      {"measurement": "pest or weed control at 140 g/ha", "setting": "[2]; [12]", "result": "75 to 84", "unit": "%"},
      {"measurement": "pest or weed control at 70 g/ha", "setting": "[2]; [13]", "result": "60 to 74", "unit": "%"},
      {"measurement": "pest or weed control at 140 g/ha", "setting": "[2]; [13]", "result": "75 to 84", "unit": "%"},
      {"measurement": "pest or weed control at 70 g/ha", "setting": "[2]; [14]", "result": "0 to 29", "unit": "%"},
      {"measurement": "pest or weed control at 140 g/ha", "setting": "[2]; [14]", "result": "0 to 29", "unit": "%"},
      {"measurement": "pest or weed control at 70 g/ha", "setting": "[2]; [15]", "result": "60 to 74", "unit": "%"},
      {"measurement": "pest or weed control at 140 g/ha", "setting": "[2]; [15]", "result": "60 to 74", "unit": "%"},
      {"measurement": "pest or weed control at 70 g/ha", "setting": "[2]; [16]", "result": "85 to 94", "unit": "%"},
      {"measurement": "pest or weed control at 140 g/ha", "setting": "[2]; [16]", "result": "85 to 94", "unit": "%"},
      {"measurement": "pest or weed control at 70 g/ha", "setting": "[2]; [17]", "result": "45 to 59", "unit": "%"},
      {"measurement": "pest or weed control at 140 g/ha", "setting": "[2]; [17]", "result": "60 to 74", "unit": "%"}
    ]}
  ]
}
